# “Also recorded” adds a separate entry of the source.
# Columns and labels:
# [1] = system: Anopheles gambiae mosquitoes (Kisumu [KIS] strain); experiment: WHO cone bioassay of impregnated netting, knock-down and mortality, KIS strain; assay type: in vivo; details: nets 500 mg/m^2 permethrin alone; after five wash/rinse cycles
# Procedure: (§1) Insectary-reared and sugar-fed Anopheles gambiae mosquitoes (Kisumu [KIS], G3 and Asembo [AB] strains), 3-4 days old, were tested for susceptibility (or resistance) to permethrin-impregnated nets, using the WHO adult mosquito susceptibility test kit. About 20 mosquitoes were used in each assay. Cohort mosquitoes were then used to bioassay the pyrethroid-impregnated netting samples using the WHO cone bioassay with a 3 minute exposure time. During an assay, the cone was held on its side, which placed the net sample in a perpendicular or vertical position with respect to the floor, as is the case when testing an actual hanging net. In each assay 7-12 mosquitoes were used with 3-4 such assays run for each experiment. After exposure for the prescribed time, mortality was determined after the mosquitoes were held overnight (24 hours) in clean cartons with sugar water for nourishment. Final mortality was corrected for control mortality. Knock-down was defined as the number of mosquitoes alive or dead, present on the floor of the carton 30 minutes after exposure. Knock-down is considered to be a more accurate measurement of insecticide efficacy because in the wild any mosquito that falls to the ground serves almost immediately as food for other insects (e.g., ants). Temperature and humidity conducive to the survival of the mosquitoes were maintained.
# [2] = system: Anopheles gambiae mosquitoes (G3 strain); experiment: WHO cone bioassay of impregnated netting, knock-down and mortality, G3 strain; assay type: in vivo; details: nets 500 mg/m^2 permethrin alone; two wash/rinse cycles
# Procedure: as §1
# [3] = system: Anopheles gambiae mosquitoes (Asembo [AB] strain); experiment: WHO cone bioassay of impregnated netting, knock-down and mortality, AB strain; assay type: in vivo; details: nets 500 mg/m^2 permethrin alone; after one wash/rinse cycle
# Procedure: as §1
# [4] = system: Anopheles gambiae mosquitoes (Kisumu [KIS], G3 and Asembo [AB] strains); experiment: WHO cone bioassay of impregnated netting, all strains; assay type: in vivo
# Procedure: as §1
# [5] = Wash/rinse cycles of netting samples, permethrin removed per cycle; assay type: physicochemical
# Procedure: Netting samples were repeatedly washed and each wash and rinse solution was analyzed to determine the concentration of impregnated insecticide removed during each wash cycle. After several wash/rinse cycles, when the insecticidal efficacy had become depleted, the residual insecticide on the net was also determined.
# A volume of 100 ml of a standardized detergent (2% aqueous sodium dodecyl sulfate [SDS]) was added to a 4 ounce wide mouth screw-cap bottle. An impregnated net sample (bioassayed beforehand) was folded twice and placed into the SDS solution, and the cap was applied and the bottle was shaken for 5 minutes on a mechanical shaker. After removing the cap, the net sample was removed, wrung out and placed in a 4 ounce bottle containing 100 ml of de-ionized water and shaken for five minutes, after which, the sample was removed, wrung out and left to dry overnight. The sample was rebioassayed the next day and at later times. To each wash solution was added a volume of 100 μl of the appropriate internal standard (IS) solution in acetone, and the contents were vigorously shaken by hand. To the rinse solution was added a 0.5 g quantity of dry SDS, and the contents were shaken to dissolve the SDS. Then a 100 μl volume of IS was added, and the contents were vigorously shaken. Two ml of each wash and rinse solution was then transferred to a 4 ml screw-cap vial, 3 ml of ethyl acetate were added and the contents were shaken. After centrifugation to clarify the ethyl acetate layer, about 1 ml of the ethyl acetate layer of each extract was transferred to an autosampler vial and injected onto the GC system described above to determine insecticide content.
# For washing experiments involving permethrin, the wash and rinse solutions were injected directly onto a reversed-phase, high-performance liquid chromatographic system with ultraviolet (UV) detection, to determine the permethrin content of the solutions.
structure (smiles),measurement,setting,value
"CC1(C)C(C=C(Cl)Cl)C1C(=O)OCc1cccc(Oc2ccccc2)c1 (stereo not drawn) [Permethrin Alone, permethrin]",knock-down,[1],less than 50%
same,mortality,[1],approximately 20%
same,knock-down,[2],approximately 20%
same,mortality,[2],~10%
same,effectiveness (knock-down and mortality),[3],completely ineffective; also recorded: all effectiveness with this strain was lost
same,effectiveness against all strains,"[4]; nets 500 mg/m^2 permethrin alone, six wash/rinse cycles",completely disappeared
same,effectiveness against all strains,"[4]; nets 1000 mg/m^2 permethrin alone, after four washings",lost most of their effectiveness
same,insecticide lost after the first washing,[5]; nets 500 or 1000 mg/m^2 permethrin alone,63-90%
same,Amt (%) washed off during a W/R cycle,"[5]; permethrin alone 500 mg/m^2, W/R = 1",63.0%
same,Amt (%) washed off during a W/R cycle,"[5]; permethrin alone 500 mg/m^2, W/R = 2",4.3%
same,Amt (%) washed off during a W/R cycle,"[5]; permethrin alone 500 mg/m^2, W/R = 3",4.7%
same,Amt (%) washed off during a W/R cycle,"[5]; permethrin alone 500 mg/m^2, W/R = 4",17.5%
same,Amt (%) washed off during a W/R cycle,"[5]; permethrin alone 500 mg/m^2, W/R = 5",7.6%
same,Amt (%) washed off during a W/R cycle,"[5]; permethrin alone 500 mg/m^2, W/R = 6",2.8%
same,Amt (%) washed off during a W/R cycle,"[5]; permethrin alone 1000 mg/m^2, W/R = 1",90.7%
same,Amt (%) washed off during a W/R cycle,"[5]; permethrin alone 1000 mg/m^2, W/R = 2",2.4%
same,Amt (%) washed off during a W/R cycle,"[5]; permethrin alone 1000 mg/m^2, W/R = 3",0.9%
same,Amt (%) washed off during a W/R cycle,"[5]; permethrin alone 1000 mg/m^2, W/R = 4",0.9%

# Source: patent US6896892B2, “Insecticide-impregnated fabric and method of production” (The United States of America as represented by the …, priority 2000, dated 2005)
